“And” between values parts separate entries of the source, which are not always exact repeats. Equal entries are not always repeated. “Also recorded” adds a separate entry of the source.
What was measured:
[1] = AAPH-induced DHE oxidation, antioxidant-induced lag phase vs sterol mol % (sterol superlattice assay); format: biochemical
Description: Two-component or multi-component models of large unilamellar vesicles (LUVs) containing DHE (dehydroergosterol) are prepared as described above. The sizes of LUVs are in the range of 100-800 nm in diameter. [Please quantify the term “large”]. A prooxidant or a free radical generator is added to a fluorescence cuvette containing LUVs that have been incubated with an antioxidant. In certain embodiments, sterol oxidation was induced by a water-soluble free radical generator, AAPH (2,2′-azobis(2-amidinopropane) dihydrochloride). […] Plotting the lag phase length (τ) (or the initial rate Ri, in the case of lacking lag phase) vs sterol mole fraction in the presence of low dose antioxidant, a biphasic change in (or Ri) at a given Cr (e.g., 20.0, 22.2, 25.0, 33.3, 40.0 and 50.0 mol % sterol) is observed (see FIGS. 4, 8, and 9). This experiment will be repeated at different antioxidant doses. A threshold antioxidant concentration (Cth) is the highest antioxidant concentration at which the biphasic change in τ with sterol mol % may still be detected. The τ, Ri, and Cth values will give information about the antioxidant activity or potency and side effects. The τ and Ri values will give information about the antioxidant activity or potency. […] The ratio of the Ri value in the presence of antioxidants to that in the absence of antioxidants (Ri/Rio) also reflects the potency of the antioxidant. […] The Cth value indicates the potential toxicity of the antioxidant. The lower the Cth value is, the higher the potential damage to cell membranes becomes. The Cth values will be determined based on the capability of the antioxidant to abolish the biphasic change of either τ or Ri with membrane sterol mole fraction. All of the antioxidants, either producing τ or Ri, can be compared and ranked based on the Cth values.
Dehydroergosterol (DHE; Sigma, St. Louis, Mo.) was first purified by HPLC, and then dissolved in CHCl3 to make a stock solution. The concentration of DHE stock solution was calculated by absorbance in dioxane at 326 nm, using an extinction coefficient equal to 10,600 M^−1 cm^−1. DMPC was purchased from Avanti Polar Lipids (Alabaster, Ala.). The concentration of DMPC in stock solution and in LUVs was determined by the method of Bartlett (61). The prooxidant AAPH ((2,2′-azobis(2-amidinopropane) dihydrochloride) was obtained from Aldrich (Milwaukee, Wis.). Ascorbic acid and ascorbyl palmitate were purchased from Sigma.
Calculated amounts of DMPC and DHE were pipetted into tubes and dried under N2 until there was no visible solvent; lipids were then dried overnight under vacuum. Next, lipids were reconstituted at 37° C. with 5.0 mL of 50 mM Tris-HCl buffer at pH 7.0 (containing 0.02% NaN3 and 0.1 mM EDTA), then flushed with N2, and vortexed for 2 min at 37° C. to form multilamellar vesicles (MLVs). The MLVs were cooled to 4° C. for 30 min and then incubated at 37° C. for 30 min. This cooling/heating cycle was repeated three times to ensure an even distribution of lipids within each monolayer of the vesicles. After being exposed to three cycles of heat/cold to allow for thorough mixing, vesicles were left for 4 days at room temperature to come to thermal equilibrium. LUVs were then prepared from MLVs by extrusion (Lipex Biomembranes Inc., Vancouver, BC, Canada). The MLVs were extruded at 37° C. 10 times through two stacked 200 nm Nucleopore polycarbonate filters (Costar) under nitrogen gas pressure to form homogeneous LUVs. To avoid auto-oxidation of sterol, the LUV samples were flushed with argon, sealed, and stored in a dessicator chamber under vacuum at room temperature for seven days prior to sterol oxidation measurements (50). During this time, phosphorus concentration was measured again to determine new phospholipid concentration after loss by extrusion (53).
A typical LUV sample set spanned a predicted critical sterol mole fraction (Cr) for maximal superlattice formation. […]

[2] = AAPH-induced sterol oxidation, initial rate (Ri) vs sterol mol %; format: biochemical
From the text: The main purpose of this assay is to determine the Cth value for the antioxidant ALA, which is both water and lipid soluble. […] Ri came from monitoring DHE fluorescence intensity after addition of AAPH. […] In this case (the right panel in the flow chart—FIG. 9), the initial rate of sterol oxidation (Ri), instead of the lag phase, is used as the parameter to reflect the potency of an antioxidant activity. […] The membrane system is: 1-palmitoyl-2-oleoyl-L-α-phosphatidylcholine (POPC)/porcine brain sphingomyelins (pSPMs)/DHE LUVs. This biphasic change is expected from the sterol superlattice theory and is consistent with our previous finding (43). […] In this case, the Cth value is determined to be >>5 mM, if there is any. Vertical bars are the standard deviations from three independently prepared samples. The experiment was carried out at 37-42° C.
The term “Ri” as used herein means the initial rate of sterol oxidation in sec^−1. Ri can be calculated as follows: Ri equals [(Normalized fluorescence intensity of DHE at time t) minus (normalized fluorescence intensity of DHE at time 0)] divided by (t−0). Initial rate of sterol oxidation is calculated from the slope of DHE fluorescence intensity decrease vs time. […] Each sample set spanning a critical mole fraction must be analyzed separately in order to get an accurate picture for that particular set of vesicles. […] One reason for these slight variations is due to the high sensitivity of fluorescence signals. Fluorescence intensity is a relative value, depending on the amount of fluorophore in the cuvette, sample mixing, temperature fluctuations, and quenching due to impurities in the sample. For this reason, each complete set is analyzed separately, but all sets are normalized so that they can be compared to each other. Each sample set is analyzed by examining the first five to ten minutes of fluorescence decay in a sequential manner. […] Within a sample set, the deviation from linearity can be determined, and the number of minutes that will be used to calculate the initial rate can be defined. […]

[3] = sample set 23.8-26.2 mol %, Cr 25.0 mol %, FIG. 5
[4] = sample set 38.8-41.2 mol %, Cr 40.0 mol %, FIG. 6

Structure (SMILES)	Cth (threshold antioxidant concentration above which biphasic profile of lag phase at Cr is no longer observable) ([1]; sample set 18.8-21.2 mol % DHE in DMPC, Cr 20.0 mol %, FIG. 4)	Cth (biphasic change in lag phase with sterol content abolished) [1, 3]	Cth (biphasic change in lag phase with sterol content abolished) [1, 4]	lag phase in AAPH-induced sterol oxidation ([2]; AAPH-induced DHE fluorescence decay)	effect on initial rate of sterol oxidation (Ri) ([2]; AAPH-induced DHE oxidation, increasing ALA doses)	Cth (from biphasic change of Ri with sterol content) ([2]; POPC/pSPMs/DHE LUVs, Cr 20.0 mol %, 37-42° C., FIG. 8)	Cth (threshold antioxidant concentration for sterol superlattice disruption) ([1]; DMPC/DHE LUVs, 37° C., all three sample sets (Cr 20.0, 25.0, 40.0 mol %))	lag phase length relative to ascorbic acid ([1]; same apparent dose, FIGS. 2 and 3)	concentration at which the biphasic profile of lag phase is obliterated ([1]; sample set spanning Cr 20.0 mol % DHE, FIG. 4)	concentration at which the biphasic profile of lag phase is obliterated ([1]; sample set spanning Cr 25.0 mol % DHE, FIG. 5)	concentration at which the biphasic profile of lag phase is obliterated ([1]; sample set spanning Cr 40.0 mol % DHE, FIG. 6)
O=C1O[C@H]([C@@H](O)CO)C(O)=C1O [ascorbic acid]	≥ 30 µM	≥ 30 µM	≥ 120 µM								
O=C(O)CCCCC1CCSS1 (stereo not drawn) [ALA, alpha lipoic acid]				does not generate a lag phase	Ri decreases with increasing ALA doses; also recorded: dose-dependent decrease	> 5 mM					
CCCCCCCCCCCCCCCC(=O)OC[C@H](O)[C@H]1OC(=O)C(O)=C1O [ascorbyl palmitate]		11.3 to 15.0 µM	13.1 to 15.0 µM				13 to 15 µM and 13.1 to 15.0 µM	much more potent; also recorded: about three	≥ 15.0 µM	≥ 15.0 µM	≥ 15.0 µM
